In article PMC10268594 (2023):
Each block holds one molecule with its values, some of them ahead of it.

What was measured:
Assay in all cases: single-molecule MspA-M2 nanopore kinetics
[1] = test system: Theophylline-binding aptamer (RNA, aptamer) AGUGAUACCAGCAUCGUCUUGAUGCCCUUGGCAGCACU; details: 1 M KCl; +180 mV, aptamer cis, 25 µM theophylline trans
[2] = test system: Serotonin-binding aptamer (DNA, aptamer) CGACTGGTAGGCAGATAGGGGAAGCTGATTCGATGCGTGGGTCG; details: 1 M KCl; +120 mV, aptamer cis, serotonin trans
[3] = test system: Dopamine-binding aptamer (DNA, aptamer) CGACGCCAGTTTGAAGGTTCGTTCGCAGGTGTGGAGTGACGTCG; details: 1 M KCl; 10 mM Tris pH 7.4, +180 mV, aptamer cis, 25 µM dopamine trans

Kd [1]: 72 ± 17 µM
SMILES: Cn1c(=O)c2[nH]cnc2n(C)c1=O

Kd [2]: 9.0 ± 1.3 µM
SMILES: NCCc1c[nH]c2ccc(O)cc12

Kd [3]: 27 ± 3 µM
SMILES: NCCc1ccc(O)c(O)c1
